# Measurements published in patent publication US11634404B2 (priority 2016, dated 2023).
# Where two headings read alike, the source gives them in different places.
# Tests used:
# [1] = tested on: receptors, transporters and some ion channels; experiment: PDSP primary radioligand binding panel; details: 10 μM, >50% inhibition considered significant
# Source text: […]. […] […]. […] […].
# panel of 168 GPCRs [2] = molecular target: panel of 168 GPCRs (Homo sapiens, UniProt P30988); type: cell-based; details: agonist, 10 μM
# panel of 168 GPCRs (Homo sapiens, UniProt P30988), sequence (P30988 25-474 limits assumed): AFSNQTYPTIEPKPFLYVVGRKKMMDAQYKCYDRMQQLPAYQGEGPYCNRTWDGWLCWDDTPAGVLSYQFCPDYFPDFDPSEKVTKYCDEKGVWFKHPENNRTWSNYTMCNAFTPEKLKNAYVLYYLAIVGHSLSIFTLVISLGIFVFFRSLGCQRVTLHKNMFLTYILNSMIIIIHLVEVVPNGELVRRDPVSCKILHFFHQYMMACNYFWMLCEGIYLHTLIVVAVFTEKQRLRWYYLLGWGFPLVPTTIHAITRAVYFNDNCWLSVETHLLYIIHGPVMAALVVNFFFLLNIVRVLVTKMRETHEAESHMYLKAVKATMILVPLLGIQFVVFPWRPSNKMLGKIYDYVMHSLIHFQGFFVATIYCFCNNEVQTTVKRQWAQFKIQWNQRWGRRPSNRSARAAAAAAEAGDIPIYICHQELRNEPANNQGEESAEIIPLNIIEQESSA
# panel of 168 GPCRs [3] = molecular target: panel of 168 GPCRs (Homo sapiens, UniProt P47211); type: cell-based; details: GPCR GALR1; agonist, 10 μM
# D3 DAR = D3 DAR (Homo sapiens (Human), UniProt P35462); type: cell-based; details: β-arrestin recruitment, agonist
# D3 DAR, sequence (P35462 whole entry): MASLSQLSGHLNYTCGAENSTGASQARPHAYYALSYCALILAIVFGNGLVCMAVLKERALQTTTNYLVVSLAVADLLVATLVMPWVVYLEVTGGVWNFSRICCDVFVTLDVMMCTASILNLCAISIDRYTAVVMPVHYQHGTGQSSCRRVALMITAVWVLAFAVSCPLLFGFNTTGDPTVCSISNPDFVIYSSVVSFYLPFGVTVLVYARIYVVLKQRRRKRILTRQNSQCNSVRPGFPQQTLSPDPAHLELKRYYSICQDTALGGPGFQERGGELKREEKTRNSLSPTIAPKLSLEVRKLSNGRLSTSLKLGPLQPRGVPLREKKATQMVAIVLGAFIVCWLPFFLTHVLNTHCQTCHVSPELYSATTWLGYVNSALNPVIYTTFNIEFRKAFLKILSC
# [4] = tested on: terminally differentiated SHSY5Y cells; experiment: Neuroprotection assay against 6-hydroxydopamine; type: cell-based; details: 24 h pretreatment, 10 μM 6-hydroxydopamine
# Description: […]. Protection against total neurite length decrease was measured 24 h later. […].
# D3R Y198A [5] = molecular target: T1, D3R Y198A (Homo sapiens (Human), UniProt P35462, Y198A); experiment: arrestin BRET assay, mutagenesis; type: cell-based
# T1 sequence (P35462 whole entry Y198A): as the sequence (P35462 whole entry) above, with Y198A counted along it
# Description: (§1) BRET arrestin recruitment assay. As an orthogonal test using an unrelated assay of D3R-mediated β-arrestin recruitment, an arrestin BRET assay was conducted.
# (§2) […]. […] […]. The Y365A mutation had more dramatic effects. […].
# D3R Y365A [6] = molecular target: T2, D3R Y365A (Homo sapiens (Human), UniProt P35462, Y365A); experiment: arrestin BRET assay, mutagenesis; type: cell-based; details: Y365A mutation
# T2 sequence (P35462 whole entry Y365A): as the sequence (P35462 whole entry) above, with Y365A counted along it
# Description: as §1, §2
# D3R [7] = molecular target: T3, D3R (Homo sapiens (Human), UniProt P35462); experiment: ERK1/2 Phosphorylation assay; type: cell-based; details: orthogonal assay
# T3 sequence (P35462 whole entry): as the sequence (P35462 whole entry) above
# D3R [8] = molecular target: T3, D3R; experiment: BRET arrestin recruitment assay; type: cell-based; details: orthogonal assay
# D3R Y198A [9] = molecular target: T1, D3R Y198A; experiment: Go BRET assay, mutagenesis; type: cell-based
# Source text: (§3) Go BRET activation assay. […].
# as §2
# D3R Y365A [10] = molecular target: T2, D3R Y365A; experiment: Go BRET assay, mutagenesis; type: cell-based
# Source text: as §3, §2
# TA98 = experiment: Ames reverse mutation assay; type: cell-based; details: highest conc. tested 2,000 μg/ml
# Description: (§4) […]. The cultures were then diluted into an indicator medium lacking histidine, dispensed into a 384-well plate, and incubated for 48 h at 37° C. Cells that have undergone a reversion will grow, resulting in a color change. The number of wells showing growth were counted and compared to the vehicle control. […]. Data were analyzed using an unpaired, one-sided Student's T-test. Where indicated, S9 fraction from the livers of Aroclor 1254-treated rats were included in the incubation at a 4.5% final concentration. An NADPH-regenerating system was also included to ensure a steady supply of reducing equivalents.
# TA100 = experiment: Ames reverse mutation assay; type: cell-based; details: highest conc. tested 2,000 μg/ml
# Description: as §4
# 5HT2B receptor = 5HT2B receptor (Homo sapiens (Human), UniProt P41595); experiment: HTRF IP1 accumulation assay (Eurofins Cerep); type: cell-based
# 5HT2B receptor, sequence (P41595 whole entry): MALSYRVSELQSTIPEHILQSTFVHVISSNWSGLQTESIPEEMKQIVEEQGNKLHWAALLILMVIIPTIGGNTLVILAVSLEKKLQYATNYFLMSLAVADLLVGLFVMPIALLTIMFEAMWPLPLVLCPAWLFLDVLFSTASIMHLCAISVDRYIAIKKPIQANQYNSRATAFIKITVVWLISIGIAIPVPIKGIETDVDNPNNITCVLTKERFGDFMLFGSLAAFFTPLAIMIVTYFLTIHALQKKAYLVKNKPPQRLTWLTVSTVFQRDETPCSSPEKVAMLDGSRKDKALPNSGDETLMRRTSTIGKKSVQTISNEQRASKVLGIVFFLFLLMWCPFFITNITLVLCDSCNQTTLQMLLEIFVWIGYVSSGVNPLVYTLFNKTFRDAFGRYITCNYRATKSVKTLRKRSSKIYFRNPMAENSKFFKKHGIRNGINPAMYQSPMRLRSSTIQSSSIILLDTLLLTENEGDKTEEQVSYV
# HepG2 cells = experiment: Cytotoxicity screening panel, High Content Screening; type: cell-based
# Description: (§5) HepG2 cells were plated on 384-well tissue culture treated black walled clear bottomed polystyrene plates. The cells were dosed with test compound at a range of concentrations. At the end of the incubation period, the cells were loaded with the relevant dye/antibody for each cell health marker. The plates were then scanned using an automated fluorescent cellular imager, ArrayScan® (Thermo Scientific Cellomics). Cytotoxicity was assessed using a multi-parametric approach using High Content Screening (HCS). The following parameters were screened.
# (§6) Nuclear size: An increase in nuclear area can indicate necrosis or G2 cell cycle arrest and a decrease can indicate apoptosis.
# (§7) DNA structure: An increase in DNA structure can indicate chromosomal instability and DNA fragmentation.
# (§8) Cell membrane permeability: An increase in cell membrane permeability is a general indicator of cell death.
# (§9) Mitochondrial mass: A decrease in mitochondrial mass indicates loss of total mitochondria and an increase implies mitochondrial swelling or an adaptive response to cellular energy demands.
# (§10) Mitochondrial membrane potential (Δψm): A decrease indicates a loss of mitochondrial membrane potential and mitochondrial toxicity, as well as a potential role in apoptosis signaling, an increase in mitochondrial membrane potential indicates an adaptive response to cellular energy demands.
# (§11) Cytochrome c: An increase in cytochrome c release is one of the hallmarks of the apoptosis cascade.
# [11] = as above; type: cell-based; details: human, HepG2 cells; Mitochondrial Membrane Potential, response direction ↓
# Description: as §5, §6, §7, §8, §9, §10, §11
# D3R [12] = molecular target: T3, D3R; experiment: Go BRET activation assay; type: cell-based; details: orthogonal assay
# [13] = Cell Membrane Permeability, response direction ↑
# [14] = Cytochrome c, response direction ↑
# [15] = DNA Structure, response direction ↑
# [16] = Mitochondrial Mass, response direction ↑
# [17] = Nuclear Size, response direction ↑
smiles,measurement,setting,value
"COc1ccc(OCCN2CCN(C(=O)c3cc4ccccc4[nH]3)CC2)cc1 [Compound 1, (1H-indol-2-yl)(4-(2-(4-methoxyphenoxy)ethyl)piperazin-1-yl)methanone]",affinity in primary binding panel,[1],"displays affinity for only the D3R, 5-HT1A, 5-HT2B, and Sigmal receptor"
same,β-Arrestin Recruitment activity,panel of 168 GPCRs [2]; GPCR CALCR RAMP2,5%
same,β-Arrestin Recruitment activity,panel of 168 GPCRs [2]; GPCR CALCR RAMP3,6%
same,β-Arrestin Recruitment activity,panel of 168 GPCRs [2]; GPCR CALCR,0%
same,β-Arrestin Recruitment activity,panel of 168 GPCRs [3],4%
same,EC50,D3 DAR,0.036 µM
same,"neuroprotection, dose-response",[4],clear concentration dependent effect
same,"neuroprotection, protection against total neurite length decrease",[4]; compared with pramipexole,neuroprotection superior to pramipexole
same,effect of mutation on potency,D3R Y198A [5],minimal effects on the potency
same,"signaling efficacy, % that of dopamine",D3R Y198A [5]; Y198A mutation,36%
same,"efficacy, % that of dopamine",D3R Y365A [6],210%
same,potency reduction,D3R Y365A [6],440 fold
same,"agonist activity, ERK phosphorylation",D3R [7],potent and fully efficacious D3R-selective agonist
same,"agonist activity, β-arrestin recruitment (BRET)",D3R [8],potent and fully efficacious D3R-selective agonist
same,effect of mutation on potency,D3R Y198A [9],minimal effects on the potency
same,"signaling efficacy, % that of dopamine",D3R Y198A [9]; Y198A mutation,64%
same,effect of mutation on efficacy,D3R Y365A [10],appeared to be unaffected
same,potency reduction,D3R Y365A [10]; Y365A mutation,"25,000 fold"
same,AMES Result,"TA98; TA98, S9 No",Negative
same,AMES Result,"TA98; TA98, S9 Yes",Negative
same,AMES Result,"TA100; TA100, S9 No",Negative
same,AMES Result,"TA100; TA100, S9 Yes",Negative
same,inhibition at 10 µM,5HT2B receptor; read-out: inhibition of response elicited by serotonin,80%
same,"agonist activity, IP1 accumulation",5HT2B receptor; single high concentration of 10 μM,No agonist activity was found
same,AC50,HepG2 cells; [13],> 50 µM
same,MEC,HepG2 cells; [13],8.58 µM
same,AC50,HepG2 cells; [14],> 50 µM
same,MEC,HepG2 cells; [14],6.03 µM
same,AC50,HepG2 cells; [15],> 50 µM
same,MEC,HepG2 cells; [15],13.9 µM
same,AC50,HepG2 cells; [16],> 50 µM
same,MEC,HepG2 cells; [16],11.9 µM
same,MEC,"HepG2 cells; Mitochondrial Membrane Potential, response direction ↓",9.28 µM
same,AC50,HepG2 cells; [17],> 50 µM
same,MEC,HepG2 cells; [17],12.0 µM
same,AC50,[11],> 50 µM
same,"agonist activity, G-protein mediated signaling (Go BRET)",D3R [12],potent and fully efficacious D3R-selective agonist
